The results in this text go back to patent US10752612B2, “PLK4 inhibitors” (LUDWIG INSTITUTE FOR CANCER RESEARCH LTD, priority 2015, dated 2020).

This assay concerns the target T1, human Plk4 kinase domain (aa 2-275) (Homo sapiens, UniProt O00444).
T1 construct: purified 6×His-tagged human Plk4 kinase domain (aa 2-275); 6xHis; made in house; host or cells: E. coli
T1 sequence (O00444 2-275): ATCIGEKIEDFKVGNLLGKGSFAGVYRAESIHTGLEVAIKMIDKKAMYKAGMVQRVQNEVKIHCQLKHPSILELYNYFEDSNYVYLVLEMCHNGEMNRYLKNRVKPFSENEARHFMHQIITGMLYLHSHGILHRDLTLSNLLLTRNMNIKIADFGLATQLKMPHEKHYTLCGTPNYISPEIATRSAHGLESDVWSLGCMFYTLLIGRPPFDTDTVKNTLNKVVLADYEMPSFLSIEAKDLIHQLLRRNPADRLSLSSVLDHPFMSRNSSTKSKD
In words: Plk4 kinase assay (ADP-Glo). The format is biochemical. Particulars: Table 1. Put shortly:
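Enzyme at 2.5-10 nM final, pH 8.0, reacted 4-16 hours at 25° C; ADP generation read by ADP-Glo luminescence. Ki derived from IC50 by Cheng-Prusoff or, for tight binders, Copeland formalism.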
For orientation: ADP-Glo turns the ADP formed in a reaction into a luminescent signal.
Consider `Cc1cc(Nc2cc(C)[nH]n2)nc(Sc2ccc(NC(=O)C3CC3)cc2)n1`, for which the IC50 (as a rule, the concentration that gives 50% inhibition) was below 1000 nM.

For the compound `Cc1cc(Nc2nc(Sc3ccc(NC(=O)C4CC4)cc3)nc(N(C)CCN(C)C)c2C)n[nH]1`, the IC50 was below 1000 nM.

Turning to `Cc1cc(Nc2nc(Sc3ccc(NC(=O)C4CC4)cc3)nc(NCCN(C)C)c2C)n[nH]1`, the IC50 was below 1000 nM.

Take `CNCCN(C)c1nc(Sc2ccc(NC(=O)C3CC3)cc2)nc(Nc2cc(C)[nH]n2)c1C`: the IC50 is below 1000 nM.

Consider `COCCN(C)c1nc(Sc2ccc(NC(=O)C3CC3)cc2)nc(Nc2cc(C)[nH]n2)c1C`, for which the IC50 is below 1000 nM.

In the case of `Cc1cc(Nc2nc(Sc3ccc(NC(=O)C4CC4)cc3)nc(-n3ccnc3)c2C)n[nH]1`, the IC50 fell in the range of 100 to 1000 nM.

In the case of `CCc1cc(Nc2nc(Sc3ccc(NC(=O)C4CC4)cc3)nc(N3CCN(C)CC3)c2C)n[nH]1`, the IC50 was above 1000 nM.

Consider `COc1c(Nc2cc(C)[nH]n2)nc(Sc2ccc(NC(=O)C3CC3)cc2)nc1N1CCOCC1`, for which the IC50 is below 1000 nM.

For `COc1c(Nc2cc(C)[nH]n2)nc(Sc2ccc(S(=O)(=O)Cc3ccccc3)cc2)nc1N1CCC(N2CCN(C)CC2)CC1`, the IC50 is below 1000 nM.

`CSc1nc(Nc2cc(C)[nH]n2)c(C)c(N2CCC(O)CC2)n1` came in with an IC50 below 1000 nM.

As for `CSc1nc(Nc2cc(C)[nH]n2)c(C)c(N2CCOCC2)n1`, the IC50 was below 1000 nM.

For `CC(=O)Nc1ccc(Sc2nc(Nc3cc(C)[nH]n3)c(C)c(N3CCN(C(C)C)CC3)n2)cc1`, the IC50 is below 1000 nM.

In the case of `CC(=O)Nc1ccc(Sc2nc(Nc3cc(C)[nH]n3)c(C)c(N3CCN(C(=O)C(C)C)CC3)n2)cc1`, the IC50 is below 1000 nM.

`CCC(=O)N1CCN(c2nc(Sc3ccc(NC(C)=O)cc3)nc(Nc3cc(C)[nH]n3)c2C)CC1` came in with an IC50 below 1000 nM.

As for `CNCC(=O)N1CCN(c2nc(Sc3ccc(NC(C)=O)cc3)nc(Nc3cc(C)[nH]n3)c2C)CC1`, the IC50 is below 1000 nM.

For `CC(=O)Nc1ccc(Sc2nc(Nc3cc(C)[nH]n3)c(C)c(N3CCN(C(=O)CN(C)C)CC3)n2)cc1`, the IC50 is below 1000 nM.

`CNC1CCN(c2nc(Sc3ccc(NC(C)=O)cc3)nc(Nc3cc(C)[nH]n3)c2C)CC1` returned an IC50 below 1000 nM.

`CC(=O)Nc1ccc(Sc2nc(Nc3cc(C)[nH]n3)c(C)c(N3CCC(C(C)=O)CC3)n2)cc1` registered an IC50 below 1000 nM.

As for `COc1c(Nc2cc(C)[nH]n2)nc(Sc2ccc(NC(C)=O)cc2)nc1N1CCN(C(C)C)CC1`, the IC50 was below 1000 nM.

In the case of `CNCC(=O)N1CCN(c2nc(Sc3ccc(NC(C)=O)cc3)nc(Nc3cc(C)[nH]n3)c2OC)CC1`, the IC50 is below 1000 nM.

Compound `COc1c(Nc2cc(C)[nH]n2)nc(Sc2ccc(NC(C)=O)cc2)nc1N1CCN(C(=O)CN(C)C)CC1` returned an IC50 below 1000 nM.

For `Cc1cc(Nc2nc(Sc3ccccc3)nc(N(C)C(C)C)c2C)n[nH]1`, the IC50 was below 1000 nM.

Compound `CNC(=O)Nc1ccc(Sc2nc(Nc3cc(C)[nH]n3)c(C)c(N3CCC(O)CC3)n2)cc1` came in with an IC50 below 1000 nM.

The compound `CNC(=O)Nc1ccc(Sc2nc(Nc3cc(C)[nH]n3)c(C)c(N3CCOCC3)n2)cc1` returned an IC50 below 1000 nM.

As for `Cc1cc(Nc2nc(Sc3ccccc3)nc(N3CCC(O)CC3)c2C)n[nH]1`, the IC50 is below 1000 nM.

The compound `COc1c(Nc2cc(C)[nH]n2)nc(Sc2ccc(S(=O)(=O)Cc3ccccc3)cc2)nc1N1CCN(CCN2CCCC2)CC1` came in with an IC50 below 1000 nM.

`Cc1cc(Nc2nc(Sc3ccccc3)nc(N3CCOCC3)c2C)n[nH]1`: the IC50 was below 1000 nM.

The compound `CC(=O)Nc1ccc(Sc2nc(Nc3cc(C)[nH]n3)c(C)c(N3CCC(N)CC3)n2)cc1` came in with an IC50 below 1000 nM.

`CC(=O)Nc1ccc(Sc2nc(Nc3cc(C)[nH]n3)c(C)c(N3CCC(N(C)C)CC3)n2)cc1`: the IC50 is below 1000 nM.

The compound `CC(=O)Nc1ccc(Sc2nc(Nc3cc(C)[nH]n3)c(C)c(N3CCC(C)(O)CC3)n2)cc1` returned an IC50 below 1000 nM.

`CCN(CC)c1nc(Sc2ccc(NC(C)=O)cc2)nc(Nc2cc(C)[nH]n2)c1C` registered an IC50 below 1000 nM.

As for `Cc1cc(Nc2nc(Sc3ccc(N)cc3)nc(N3CCC(O)CC3)c2C)n[nH]1`, the IC50 was below 1000 nM.

In turn, `Cc1cc(Nc2nc(Sc3ccc(N)cc3)nc(N3CCOCC3)c2C)n[nH]1` yielded an IC50 below 1000 nM.

As to `COCC(=O)N1CCN(c2nc(Sc3ccccc3)nc(Nc3cc(C)[nH]n3)c2C)CC1`, the IC50 is below 1000 nM.

With `CSc1nc(Nc2cc(C)[nH]n2)c(C)c(N(C)C(C)C)n1`, the IC50 was below 1000 nM.

With `COc1c(Nc2cc(C)[nH]n2)nc(Sc2ccc(NC(C)=O)cc2)nc1N1CCC(CCN(C)C)CC1`, the IC50 was below 1000 nM.

Take `CNC(=O)Nc1ccc(Sc2nc(Nc3cc(C)[nH]n3)c(C)c(N(C)C(C)C)n2)cc1`: the IC50 was below 1000 nM.

`CNC(=O)Nc1ccc(Sc2nc(Nc3cc(C)[nH]n3)c(C)c(N3CCN(C(=O)COC)CC3)n2)cc1`: the IC50 is below 1000 nM.

In the case of `Cc1cc(Nc2nc(Sc3ccc(N)cc3)nc(N(C)C(C)C)c2C)n[nH]1`, the IC50 is below 1000 nM.

The compound `COCC(=O)N1CCN(c2nc(Sc3ccc(N)cc3)nc(Nc3cc(C)[nH]n3)c2C)CC1` returned an IC50 below 1000 nM.

The compound `Cc1ccc(Sc2nc(Nc3cc(C)[nH]n3)c(C)c(N3CCC(O)CC3)n2)cc1` displayed an IC50 below 1000 nM.

As to `Cc1ccc(Sc2nc(Nc3cc(C)[nH]n3)c(C)c(N3CCOCC3)n2)cc1`, the IC50 is below 1000 nM.

Regarding `COCC(=O)N1CCN(c2nc(Sc3ccc(C)cc3)nc(Nc3cc(C)[nH]n3)c2C)CC1`, the IC50 is below 1000 nM.

On to `COc1c(Nc2cc(C)[nH]n2)nc(Sc2ccc(S(=O)(=O)Cc3ccccc3)cc2)nc1N1CCN(CCN2CCCCC2)CC1`, for which the IC50 was below 1000 nM.

Turning to `COc1c(Nc2cc(C)[nH]n2)nc(Sc2ccc(S(=O)(=O)Cc3ccccc3)cc2)nc1N1CCN(CCN2C(C)CCCC2C)CC1` (centres unmarked), the IC50 is below 1000 nM.

The compound `COc1c(Nc2cc(C)[nH]n2)nc(Sc2ccc(S(=O)(=O)Cc3ccccc3)cc2)nc1N1CCN(CCN2CCC(O)CC2)CC1` returned an IC50 below 1000 nM.

`CC(=O)Nc1ccc(Sc2nc(Nc3cc(C)[nH]n3)c(Cl)c(N3CCC(O)CC3)n2)cc1` displayed an IC50 below 1000 nM.

`CC(=O)Nc1ccc(Sc2nc(N3CCC(O)CC3)nc(Nc3cc(C)[nH]n3)c2Cl)cc1`: the IC50 was below 1000 nM.

With `CCN(c1nc(Sc2ccc(NC(C)=O)cc2)nc(Nc2cc(C)[nH]n2)c1C)C(C)C`, the IC50 was below 1000 nM.

Turning to `CC(=O)Nc1ccc(Sc2nc(Nc3cc(C)[nH]n3)c(C)c(N(CCO)C(C)C)n2)cc1`, the IC50 was below 1000 nM.

On to `CC(=O)Nc1ccc(Sc2nc(Nc3cc(C)[nH]n3)c(C)c(N3CCN(CCN4CCCCC4)CC3)n2)cc1`, for which the IC50 was below 1000 nM.

With `CCOc1c(Nc2cc(C)[nH]n2)nc(Sc2ccc(NC(C)=O)cc2)nc1N1CCC(O)CC1`, the IC50 is below 1000 nM.

Consider `Cc1ccc(Sc2nc(Nc3cc(C)[nH]n3)c(C)c(N(C)C(C)C)n2)cc1`, for which the IC50 is below 1000 nM.

Turning to `COCC(=O)N1CCN(c2nc(SC)nc(Nc3cc(C)[nH]n3)c2C)CC1`, the IC50 is below 1000 nM.

In turn, `CCOc1c(Nc2cc(C)[nH]n2)nc(SC)nc1N1CCC(O)CC1` returned an IC50 of 100 to 1000 nM.

As to `CCOc1c(Nc2cc(C)[nH]n2)nc(SC)nc1N1CCCCC1`, the IC50 was in the range of 100 to 1000 nM.

For the compound `CCOc1c(Nc2cc(C)[nH]n2)nc(SC)nc1N1CCN(C)CC1`, the IC50 lay within 100 to 1000 nM.

In turn, `CCOc1c(Nc2cc(C)[nH]n2)nc(SC)nc1N1CCN(CCN(C)C)CC1` showed an IC50 of 100 to 1000 nM.

The compound `Cc1cc(Nc2nc(Sc3ccc(NC(=O)C4CC4)cc3)nc(N3CCC(O)CC3)c2C)n[nH]1` had an IC50 below 1000 nM.

`COc1c(Nc2cc(C)[nH]n2)nc(Sc2ccc(NC(=O)C3CC3)cc2)nc1N1CCC(O)CC1`: the IC50 is below 1000 nM.

As for `CC(=O)Nc1ccc(Sc2nc(Nc3cc(C)[nH]n3)c(C)c(N3C4CCC3CC(O)C4)n2)cc1` (centres unmarked), the IC50 is below 1000 nM.

`COc1c(Nc2cc(C)[nH]n2)nc(Sc2ccc(NC(C)=O)cc2)nc1N1C2CCC1CC(O)C2` (centres unmarked) yielded an IC50 below 1000 nM.

Consider `COc1c(Nc2cc(C)[nH]n2)nc(Sc2ccc(S(=O)(=O)Cc3ccccc3)cc2)nc1N1CCO[C@H](C)C1`, for which the IC50 is below 1000 nM.

The compound `COc1c(Nc2cc(C)[nH]n2)nc(Sc2ccc(S(=O)(=O)Cc3ccccc3)cc2)nc1N1CCN(C2CCN(Cc3ccccc3)CC2)CC1` came in with an IC50 below 1000 nM.

In the case of `COc1c(Nc2cc(C)[nH]n2)nc(Sc2ccc(S(=O)(=O)Cc3ccccc3)cc2)nc1N1CCO[C@@H](C)C1`, the IC50 was below 1000 nM.

For the compound `COc1c(Nc2cc(C)[nH]n2)nc(Sc2ccc(S(=O)(=O)Cc3ccccc3)cc2)nc1N1CC2CCC(C1)O2`, the IC50 was below 1000 nM.

As for `COc1cccc(CS(=O)(=O)c2ccc(Sc3nc(Nc4cc(C)[nH]n4)c(OC)c(N4CCN(CCN(C)Cc5ccccc5)CC4)n3)cc2)c1`, the IC50 is below 1000 nM.

In the case of `COc1c(Nc2cc(C)[nH]n2)nc(Sc2ccc(S(=O)(=O)Cc3ccccc3C)cc2)nc1N1CCN(CCN(C)C)CC1`, the IC50 is below 1000 nM.

`COc1c(Nc2cc(C)[nH]n2)nc(Sc2ccc(S(=O)(=O)Cc3ccccc3)cc2)nc1N1CCOC[C@H]1C` had an IC50 below 1000 nM.

`COc1c(Nc2cc(C)[nH]n2)nc(Sc2ccc(S(=O)(=O)Cc3ccccc3)cc2)nc1N1CCOC[C@@H]1C` showed an IC50 below 1000 nM.

In turn, `COc1c(Nc2cc(C)[nH]n2)nc(Sc2ccc(S(=O)(=O)Cc3cccc(F)c3)cc2)nc1N1CCN(CCN(C)C)CC1` yielded an IC50 below 1000 nM.

`COc1c(Nc2cc(C)[nH]n2)nc(Sc2ccc(S(=O)(=O)Cc3cccc([N+](=O)[O-])c3F)cc2)nc1N1CCN(CCN(C)C)CC1`: the IC50 was below 1000 nM.

`COC(=O)c1cccc(CS(=O)(=O)c2ccc(Sc3nc(Nc4cc(C)[nH]n4)c(OC)c(N4CCN(CCN(C)C)CC4)n3)cc2)c1` gave an IC50 below 1000 nM.

Compound `COc1c(Nc2cc(C)[nH]n2)nc(Sc2ccc(S(=O)(=O)Cc3cccc(C(N)=O)c3)cc2)nc1N1CCN(CCN(C)C)CC1` displayed a concentration for half-maximal inhibition (IC50) below 1000 nM.
